Assay [1] deals with EZH2 (Homo sapiens, UniProt Q15910). As to the kind of experiment: EZH2 assay: rPRC2 methyltransferase, 3H SAM FlashPlate. The class given is biochemical. The following applies: 0.2 μM 3H SAM, 2 nM EZH2. How it is done: (§1) Assays were carried out by mixing rPRC2 together with biotinylated oligonucleosome substrates in the presence of the radio-labeled enzyme co-factor, S-adenosyl-L-methionine (^3H SAM) (Perkin Elmer) and monitoring the enzymatically mediated transfer of tritiated methyl groups from ^3H SAM to histone lysine residues. The amount of resulting tritiated methyl histone product was measured by first capturing the biotinylated oligonucleosomes in streptavidin (SAV) coated FlashPlates (Perkin Elmer), followed by a wash step to remove un-reacted ^3H SAM, and then counting on a TopCount NXT 384 well plate scintillation counter (Perkin Elmer). The final assay conditions for EZH2 were as follows: 50 mM Tris Buffer pH 8.5, 1 mM DTT, 69 μM Brij-35 detergent, 5.0 mM MgCl2, 0.1 mg/mL BSA, 0.2 μM ^3H SAM, 0.2 μM biotinylated oligonucleosomes, 3.6 μM H3K27me3 peptide and 2 nM EZH2.
Chain of EZH2 (Q15910 whole entry): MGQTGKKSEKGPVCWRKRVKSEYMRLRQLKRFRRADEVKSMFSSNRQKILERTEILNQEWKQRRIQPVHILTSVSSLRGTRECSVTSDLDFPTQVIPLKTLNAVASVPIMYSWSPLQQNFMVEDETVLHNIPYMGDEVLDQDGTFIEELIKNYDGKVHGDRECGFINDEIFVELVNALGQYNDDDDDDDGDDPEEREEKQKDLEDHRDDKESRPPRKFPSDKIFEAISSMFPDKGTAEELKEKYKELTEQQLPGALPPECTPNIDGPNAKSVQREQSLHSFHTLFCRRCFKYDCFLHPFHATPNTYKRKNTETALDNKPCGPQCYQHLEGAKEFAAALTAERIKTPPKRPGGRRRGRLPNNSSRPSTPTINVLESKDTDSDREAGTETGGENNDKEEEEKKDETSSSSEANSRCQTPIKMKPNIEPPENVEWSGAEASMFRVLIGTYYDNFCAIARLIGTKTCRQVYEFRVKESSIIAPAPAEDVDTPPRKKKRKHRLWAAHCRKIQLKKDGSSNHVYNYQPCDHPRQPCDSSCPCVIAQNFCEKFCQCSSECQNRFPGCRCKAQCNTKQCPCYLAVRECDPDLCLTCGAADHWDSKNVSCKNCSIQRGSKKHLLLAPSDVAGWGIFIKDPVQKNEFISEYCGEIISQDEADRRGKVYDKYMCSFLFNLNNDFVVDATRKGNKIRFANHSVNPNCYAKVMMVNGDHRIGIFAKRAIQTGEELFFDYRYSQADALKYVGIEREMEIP
Chain of EZH2 (O75530 whole entry partner): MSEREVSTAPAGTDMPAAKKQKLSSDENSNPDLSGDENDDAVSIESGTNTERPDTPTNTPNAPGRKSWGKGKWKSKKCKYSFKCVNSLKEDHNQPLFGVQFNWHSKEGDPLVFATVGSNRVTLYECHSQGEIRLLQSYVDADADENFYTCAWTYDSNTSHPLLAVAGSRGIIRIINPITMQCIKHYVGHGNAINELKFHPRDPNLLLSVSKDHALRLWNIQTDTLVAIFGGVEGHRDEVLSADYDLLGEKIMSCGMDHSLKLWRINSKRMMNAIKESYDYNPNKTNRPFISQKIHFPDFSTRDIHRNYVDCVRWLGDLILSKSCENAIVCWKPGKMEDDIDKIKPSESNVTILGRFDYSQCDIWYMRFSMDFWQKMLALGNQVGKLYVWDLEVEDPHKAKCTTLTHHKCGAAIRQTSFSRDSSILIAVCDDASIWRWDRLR
Chain of EZH2 (Q15022 whole entry partner): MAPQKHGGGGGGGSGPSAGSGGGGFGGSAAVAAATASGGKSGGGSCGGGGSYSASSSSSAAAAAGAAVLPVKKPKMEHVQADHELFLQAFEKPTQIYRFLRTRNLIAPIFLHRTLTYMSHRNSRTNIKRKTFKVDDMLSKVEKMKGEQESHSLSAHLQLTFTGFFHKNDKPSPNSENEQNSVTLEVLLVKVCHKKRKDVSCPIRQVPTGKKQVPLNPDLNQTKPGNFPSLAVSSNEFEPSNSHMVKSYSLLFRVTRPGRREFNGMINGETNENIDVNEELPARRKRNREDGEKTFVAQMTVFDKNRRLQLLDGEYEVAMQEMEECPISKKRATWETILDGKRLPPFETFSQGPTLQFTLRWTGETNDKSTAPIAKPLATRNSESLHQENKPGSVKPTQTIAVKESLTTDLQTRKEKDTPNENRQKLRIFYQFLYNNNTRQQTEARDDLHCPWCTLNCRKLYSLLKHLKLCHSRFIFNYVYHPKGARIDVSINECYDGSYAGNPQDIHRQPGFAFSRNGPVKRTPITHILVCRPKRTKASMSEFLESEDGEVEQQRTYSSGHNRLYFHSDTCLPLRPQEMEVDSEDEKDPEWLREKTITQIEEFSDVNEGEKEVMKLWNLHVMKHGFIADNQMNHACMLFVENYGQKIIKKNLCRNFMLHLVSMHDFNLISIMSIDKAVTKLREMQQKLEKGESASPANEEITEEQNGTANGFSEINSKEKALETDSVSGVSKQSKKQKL
(§2) A 12.5 μL volume of the HMT enzyme, H3K27me3 peptide and oligonucleosome substrate in assay buffer was added to each well of the assay plate using a Multidrop Combi (Thermo-Fisher). Compounds were pre-incubated with the enzyme for 20 min, followed by initiation of the methyltransferase reaction by addition of 12.5 μL of ^3H SAM in assay buffer (final volume=25 μL). The final concentrations of compounds ranged from a top default concentration of 80 μM down to 0.16 μM in ten 2-fold dilution steps. Reactions were carried out for 60 minutes and quenched with 20 μL per well of 1.96 mM SAH, 50 mM Tris pH 8.5, 200 mM EDTA. Stopped reactions were transferred to SAV coated Flash-plates (Perkin Elmer), incubated for 120 min, washed with a plate washer, and then read on the TopCount NXT (1.0 min/well) to measure the amount of methyl histone product formed during the reaction.

Assay [2] addresses Y641N EZH2 (Homo sapiens, UniProt Q15910, Y641N). Nature of the assay: Y641N EZH2 assay, H3K27Me2 oligonucleosomes as substrate. Type of assay: biochemical. How it is done:
as §1, §2

Assay [3] concerns Karpas422 human lymphoma xenograft. Nature of the assay: Tumor growth inhibition, subcutaneous Karpas422 human lymphoma xenograft model. The class given is in vivo, Mus Musculus. The following applies: 160 mg/kg; for TGI (%) / T/C (%) / Tumor Size (mm3) on day 25: Karpas422 xenograft; for TGI (%) / T/C (%): CB-17 SCID mice; for TGI (%) / T/C (%) / Significance: day 25; for T/C (%): treated/control mean tumor volume; for Tumor Size (mm3) on day 25: female CB-17 SCID mice, day 25 after start of treatment, Mean ± SEM; for Significance: one-way ANOVA vs vehicle, tumor volume. As to the method:
Number of animals: 50 mice plus spare
Animal supplier: Shanghai SLAC Laboratory Animal Co., LTD.
The Karpas422 tumor cells were maintained in vitro as suspension culture in RPMI1640 medium supplemented with 10% heat inactivated fetal calf serum at 37° C. in an atmosphere of 5% CO2 in air. The tumor cells were routinely subcultured twice weekly. The cells growing in an exponential growth phase were harvested and counted for tumor inoculation.
Each mouse was inoculated subcutaneously at the right flank with the Karpas422 tumor cells (5×10^6) in 0.2 ml of PBS with Matrigel (1:1) for tumor development. Day 23 after tumor inoculation was as day 0 after the start of treatment when the average tumor size reached approximately 300 mm^3. Each group consisted of 10 tumor-bearing mice.
Tumor size was measured three times weekly in two dimensions using a caliper, and the volume was expressed in mm^3 using the formula: V=0.536a×b^2 where a and b are the long and short diameters of the tumor, respectively. The tumor size was then used for calculations of T/C values. The T/C value (in percent) is an indication of antitumor effectiveness; T and C are the mean volumes of the treated and control groups, respectively, on a given day. TGI was calculated for each group using the formula: TGI (%)[1−(Ti−T0)/(Vi−V0)]×100; Ti is the average tumor volume of a treatment group on a given day, T0 is the average tumor volume of the treatment group on the day of treatment start, Vi is the average tumor volume of the vehicle control group on the same day with Ti, and V0 is the average tumor volume of the vehicle group on the day of treatment start.
Experimental Endpoint and Sample Collection
1). Plasma, tumor and muscle in EPZ-6438 group were collected on day 16 after the start of treatment at 6 h after dosing. Plasma, tumor and muscle in vehicle, CPI-524369, CPI-524416 and CPI-591780 groups were collected on day 25 after the start of treatment at 1 h after dosing. 2). All the blood was taken from each animal with EDTA-K2 as anticoagulant. Plasma was divided into two parts. The first part was for PK analysis; the second part was frozen for backup. 3). Tumor was divided into three parts. The first part was snap-frozen for PK; the second part was snap-frozen for PD analysis; the third part was frozen for backup. 4). Muscle was divided into two parts. The first part was snap-frozen for PK; the second part was frozen for backup.
Tumor Growth Inhibition Analysis
(In xenograft studies the graft and the host belong to different species.)

Where [4] appears, read: rPRC2, biotinylated oligonucleosomes, read-out: EZH2 IC50.
Setting [5] is: Y641N EZH2 mutant enzyme, H3K27Me2 oligonucleosomes, read-out: Y641N EZH2 IC50.
Where [6] appears, read: EZH2 IC50, rPRC2, biotinylated oligonucleosomes.

Where two headings read alike, the source gives them in different places.

Chain of Y641N EZH2 (Q15910 whole entry Y641N): as the sequence (Q15910 whole entry) above, with Y641N counted along it
Chain of Y641N EZH2 (O75530 whole entry partner): as the sequence (O75530 whole entry partner) above
Chain of Y641N EZH2 (Q15022 whole entry partner): as the sequence (Q15022 whole entry partner) above

`COc1cc(C)[nH]c(=O)c1CNC(=O)c1c(C)n(C(C)C2CCN(S(C)(=O)=O)CC2)c2ccccc12` (single isomer, unassigned) [Compound 336, (R or S)-N-((4-methoxy-6-methyl-2-oxo-1,2-dihydropyridin-3-yl)methyl)-2-methyl-1-(1-(1-(methylsulfonyl)piperidin-4-yl)ethyl)-1H-indole-3-carboxamide]: the IC50 in assay [1] (setting [4]) and in assay [2] (setting [5]) was < 100 nM throughout.

`COc1cc(C)[nH]c(=O)c1CNC(=O)c1c(C)n(C(C)C2CCN(C(=O)C(C)(C)O)CC2)c2ccccc12` (single isomer, unassigned) [Compound 337, (R or S)-1-(1-(1-(2-hydroxy-2-methylpropanoyl)piperidin-4-yl)ethyl)-N-((4-methoxy-6-methyl-2-oxo-1,2-dihydropyridin-3-yl)methyl)-2-methyl-1H-indole-3-carboxamide]: the IC50 in assay [1] (setting [4]) and in assay [2] (setting [5]) was < 100 nM in each case.

As to `COc1cc(C)[nH]c(=O)c1CNC(=O)c1c(C)n(C(C)C2CCN(C(=O)C(C)C)CC2)c2ccccc12` (single isomer, unassigned) [Compound 342, (R or S)-1-(1-(1-isobutyrylpiperidin-4-yl)ethyl)-N-((4-methoxy-6-methyl-2-oxo-1,2-dihydropyridin-3-yl)methyl)-2-methyl-1H-indole-3-carboxamide], the IC50 in assay [1] (setting [4]) and in assay [2] (setting [5]) was < 100 nM throughout.

Take `COCCN1CCC(C(C)n2c(C)c(C(=O)NCc3c(OC)cc(C)[nH]c3=O)c3ccccc32)CC1` (single isomer, unassigned) [Compound 359, (R or S)-N-((4-methoxy-6-methyl-2-oxo-1,2-dihydropyridin-3-yl)methyl)-1-(1-(1-(2-methoxyethyl)piperidin-4-yl)ethyl)-2-methyl-1H-indole-3-carboxamide]: the IC50 in assay [1] (setting [6]) and in assay [2] was < 100 nM each time.

In the case of `COc1cc(C)[nH]c(=O)c1CNC(=O)c1c(C)n(C(C)C2CCN(C3COC3)CC2)c2ccccc12` (single isomer, unassigned) [Compound 341, (R or S)-N-((4-methoxy-6-methyl-2-oxo-1,2-dihydropyridin-3-yl)methyl)-2-methyl-1-(1-(1-(oxetan-3-yl)piperidin-4-yl)ethyl)-1H-indole-3-carboxamide], the IC50 in assay [1] (setting [6]) and in assay [2] was < 100 nM in each case.

For `Cc1cc(OC(F)F)c(CNC(=O)c2c(C)n(C(C)C3CCN(S(C)(=O)=O)CC3)c3ccccc23)c(=O)[nH]1` (single isomer, unassigned) [Compound 344, (R or S)-N-((4-(difluoromethoxy)-6-methyl-2-oxo-1,2-dihydropyridin-3-yl)methyl)-2-methyl-1-(1-(1-(methylsulfonyl)piperidin-4-yl)ethyl)-1H-indole-3-carboxamide], the half-maximal inhibitory concentration (IC50) in assay [1] (setting [4]) and in assay [2] (setting [5]) was < 100 nM in each case.

Take `Cc1cc(C)c(CNC(=O)c2c(C)n(C(C)C3CCN(C4COC4)CC3)c3ccccc23)c(=O)[nH]1` (single isomer, unassigned) [Compound 375, (R or S)-N-((4,6-dimethyl-2-oxo-1,2-dihydropyridin-3-yl)methyl)-2-methyl-1-(1-(1-(oxetan-3-yl)piperidin-4-yl)ethyl)-1H-indole-3-carboxamide]: the 50% inhibitory concentration (IC50) in assay [1] (setting [6]) and in assay [2] was < 100 nM throughout.

In the case of `CCc1cc(C)[nH]c(=O)c1CNC(=O)c1c(C)n(C(C)C2CCN(C)CC2)c2ccccc12` (single isomer, unassigned) [Compound 366, (R or S)-N-((4-ethyl-6-methyl-2-oxo-1,2-dihydropyridin-3-yl)methyl)-2-methyl-1-(1-(1-methylpiperidin-4-yl)ethyl)-1H-indole-3-carboxamide], the IC50 in assay [1] (setting [6]) and in assay [2] was < 100 nM each time.

`COc1cc(C)[nH]c(=O)c1CNC(=O)c1c(C)n(C(C)C(C)OC)c2ncccc12` (single isomer, unassigned) [Compound 266, N-((4-methoxy-6-methyl-2-oxo-1,2-dihydropyridin-3-yl)methyl)-1-((2R or 2S, 3R or 3S)-3-methoxybutan-2-yl)-2-methyl-1H-pyrrolo[2,3-b]pyridine-3-carboxamide] yielded an IC50 in assay [2] of 100 to 1000 nM.

On to `COc1cc(C)[nH]c(=O)c1CNC(=O)c1c(C)n(C(C)C2CCN(CC(F)(F)F)CC2)c2ccccc12` (single isomer, unassigned) [Compound 365, (R or S)-N-((4-methoxy-6-methyl-2-oxo-1,2-dihydropyridin-3-yl)methyl)-2-methyl-1-(1-(1-(2,2,2-trifluoroethyl)piperidin-4-yl)ethyl)-1H-indole-3-carboxamide], for which, in assay [3], the “TGI (%)” value was determined as 97.25%, the “T/C (%)” value amounted to 18.72%, the “Tumor Size (mm3) on day 25” value was found to be 319 ± 67 mm3 and the Significance result was “*** (*** p < 0.001)”.

For the molecule `COc1cc(C)[nH]c(=O)c1CNC(=O)c1c(C)n(C(C)C2CCN(CC(F)F)CC2)c2ccccc12` (single isomer, unassigned) [Compound 362, (R or S)-1-(1-(1-(2,2-difluoroethyl)piperidin-4-yl)ethyl)-N-((4-methoxy-6-methyl-2-oxo-1,2-dihydropyridin-3-yl)methyl)-2-methyl-1H-indole-3-carboxamide], in assay [3], the “TGI (%)” value is listed as 92.75%, the “T/C (%)” value is 22.59%, the “Tumor Size (mm3) on day 25” value came out at 385 ± 66 mm3 and the Significance result was “*** (*** p < 0.001)”.

By IC50 is commonly meant the concentration that inhibits the measured activity by half.

These data come from patent USRE47428E1, “Modulators of methyl modifying enzymes, compositions and uses thereof” (Constellation Pharmaceuticals, Inc., priority 2013, dated 2019).
